Laboratory results taken from patent US12496353B2, “Synergistic effects between auristatin-based antibody drug conjugates and inhibitors of the PI3K-AKT mTOR pathway” (SEAGEN INC., priority 2010, dated 2025).
Non-standard residues stand in square brackets, D forms with d. Residues, ends and D or L forms follow the SMILES beside them. *: point of attachment. Dolaproine = CO[C@@H]([C@@H]1CCCN1)[C@@H](C)C(=O)O; Dil = CC[C@H](C)[C@H](NC)[C@@H](CC(=O)O)OC; X1 = C[C@@H](N*)[C@@H](O)c1ccccc1; NMeV = CN[C@H](C(=O)O)C(C)C

Assays:
[1] = system: 786-O cells; test: In vitro combination cytotoxicity (Cell Titer Glo, Chou-Talalay CI), 786-O; format: cell-based; conditions: for interaction with the rapalogs temsirolimus, sirolimus, and everolimus / cytotoxicity of the drug alone: 786-O cell line; for interaction with the rapalogs temsirolimus, sirolimus, and everolimus: FIG. 2; for cytotoxicity of the drug alone: single drug; for effect on the cytotoxicity of h1F6-mcF: RCC cell lines (786-O and Caki-2 named in the sentence before)
Description: (§1) 786-O cells were cultured in Roswell Park Memorial Institute medium (RPMI) 1640+10% fetal bovine serum (FBS). Caki-1 cells were cultured in McCoy's 5A medium+10% FBS. Caki-2 cells were cultured in McCoy's 5A medium+2% FBS. 786-O, Caki-1, and Caki-2 cells (renal cell carcinoma cell lines) were all cultured at 37° C. with 5% CO2. L540cy cells were cultured in RPMI 1640+20% FBS. L428 cells were cultured in RPMI 1640+10% FBS. L540cy and L428 cell lines are Hodgkin lymphoma cell lines. Karpas-299 cells were cultured in RPMI 1640+10% FBS. The Karpas-299 cell line is an anaplastic large cell lymphoma cell (ALCL) line. HT cells were cultured in RPMI 1640+10% FBS. Raji 4RII cells (clone-11) were a gift from Francisco J. Hernandez-Ilizaliturri and cultured in RPMI 1640+10% FBS. HT and Raji 4RH cell lines are Non-Hodgkin lymphoma cell lines. Jeko-1 cells were cultured in RPMI-1640+10% FBS . Jeko-1 cell lines are mantle cell lymphoma cell lines.
Cells were plated in 100 μL growth media per well into black-sided clear-bottom 96-well plates. Next, 4× concentration working stocks of small molecule inhibitor and antibody drug conjugate were prepared, and then titrated as 2-fold serial dilutions producing 10-point dose curves. For the single drug conditions, 50 μL small molecule inhibitor or ADC or free auristatin was added to each well in quadruplicate with 50 μL of media producing a final volume of 200 μL per well. For the combination conditions, 50 μL small molecule inhibitor and 50 μL ADC or free auristatin dilution were added to the cells (overlaying the dose titrations of each drug: high to low) in quadruplicate producing a final volume of 200 μ, per well. Treated cells were incubated 96 hours at 37° C., 5% CO2. Cytotoxicity was measured by incubating with 100 μL Cell Titer Glo (Promega) solution for 1 hour, and then luminescence was measured on a Fusion HT plate reader (Perkin Elmer). Data was processed with Excel (Microsoft) and GraphPad (Prism) to produce dose response curves and calculate the fraction affected (f a) at each dose concentration. Then CalcuSyn (Biosoft) software was used to determine synergism, additivity, or antagonism for each drug combination using the median-effect equation of Chou-Talalay: D=Dm[fa/(1−fa)]^1/m Median-effect equation
(D) is the dose of the drug. (Dm) is the median-effect dose signifying the potency. This is determined by the x-intercept of the median-effect plot. (fa) is the fraction affected by the dose. (fu) is the fraction unaffected, (1−fa). (m) is an exponent signifying the sigmoidicity (shape) of the dose-effect curve. It is determined by the slope of the median-effect plot. The linear correlation coefficient “r” should be greater than or equal to 0.90. The drug concentration units are arbitrary.
Combination index (CI) values <0.9 indicate synergism, CI values 0.9-1.1 indicate additivity, and CI values >1.1 indicate antagonism.
Each combination study was repeated on separate days a total of n=3 times unless otherwise noted, and the mean combination index value reported with standard error of the mean (sem).

[2] = system: Caki-1 cells; test: In vitro combination cytotoxicity (Cell Titer Glo, Chou-Talalay CI), Caki-1; format: cell-based; conditions: Caki-1 cell line; FIG. 3
Description: as §1
(§2) Cells were plated in 100 μL growth media per well into black-sided clear-bottom 96-well plates. […] Cytotoxicity was measured by incubating with 100 μL Cell Titer Glo (Promega) solution for 1 hour, and then luminescence was measured on a Fusion HT plate reader (Perkin Elmer). […]
(§3) (D) is the dose of the drug. […] This is determined by the x-intercept of the median-effect plot. […] It is determined by the slope of the median-effect plot. […]

[3] = system: L428 cells; test: In vivo combination of cAC10-vcE and everolimus, B-like Hodgkin lymphoma murine xenograft; design: species or system NOD-SCID-gamma mice; conditions: for complete responses: L428 xenograft, day 61, groups of 10 mice, cAC10-vcE 1.0 mg/kg q4dx4 ip, everolimus 15 mg/kg po
Description: To test combination treatments in B-like Hodgkin lymphoma in vivo, a murine xenograft model was used. L428 cells were implanted into NOD-SCID-gamma mice (The Jackson Laboratory) to generate tumors. Tumors were grown to an average of 90 mm 3 , then sorted into groups of 10 mice. Mice were not treated, treated with everolimus (15 mg/kg), treated with cAC10 (1 mg/kg), treated with cAC10-vcE (1.0 mg/kg), treated with cAC10 and everolimus, or treated with cAC10-vcE and everolimus. The cAC10-vcE and cAC10 was administered q4dx4 ip. The everolimus was administered ql dx14 po.

[4] = system: Caki-2 cells; test: In vitro combination cytotoxicity (Cell Titer Glo, Chou-Talalay CI), Caki-2; format: cell-based; conditions: Caki-2 cell line; single drug
Description: as §1, §2, §3

[5] = system: L428 cells; test: In vivo combination of cAC10-vcE and temsirolimus, B-like Hodgkin lymphoma murine xenograft; design: species or system NOD-SCID-gamma mice; conditions: for Median Days to Triple Volume: L428 xenograft, cAC10-vcE 1.0 mg/kg q4dx4 ip, temsirolimus 20 mg/kg ip
Description: To test combination treatments in B-like Hodgkin lymphoma in vivo, a murine xenograft model was used. L428 cells were implanted into NOD-SCID-gamma mice (The Jackson Laboratory) to generate tumors. Tumors were grown to an average of 90 mm^3, then sorted into groups of 7 mice. Mice were not treated, treated with temsirolimus (20 mg/kg), treated with cAC10-vcE (1.0 mg/kg), or treated with cAC10-vcE and temsirolimus. The cAC10-vcE was administered q4dx4 ip. The temsirolimus was administered q4dx4 ip or q3dx6 ip. In the combination treatment, the cAC10-vcE was dosed 2 days before temsirolimus. Tumor volume was measured periodically for 120 days post initial dosing. Data was plotted as a Kaplan-Meier plot showing rate of tumor tripling. P-values were calculated using the Log-rank test to confirm statistical significance.

[6] = system: HT cells; test: In vitro combination cytotoxicity (Cell Titer Glo, Chou-Talalay CI), HT; format: cell-based; conditions: HT cell line
Description: as §1, §2, §3

Molecule: CC[C@H](C)[C@@H]([C@@H](CC(=O)N1CCC[C@H]1[C@H](OC)[C@@H](C)C(=O)N[C@H](C)[C@@H](O)c1ccccc1)OC)N(C)C(=O)[C@@H](NC(=O)[C@@H](NC)C(C)C)C(C)C [MMAE, monomethyl auristatin E] (H-[NMeV]V[Dil][Dolaproine]-X1)
- interaction with the rapalogs temsirolimus, sirolimus, and everolimus [1]: synergistic
- interaction with the rapalogs temsirolimus and sirolimus [2]: synergistic

Molecule: CO[C@H]1C[C@@H]2CC[C@@H](C)[C@@](O)(O2)C(=O)C(=O)N2CCCC[C@H]2C(=O)O[C@H]([C@H](C)C[C@@H]2CC[C@@H](OCCO)[C@H](OC)C2)CC(=O)[C@H](C)/C=C(\C)[C@@H](O)[C@@H](OC)C(=O)[C@H](C)C[C@H](C)/C=C/C=C/C=C/1C [everolimus]
- complete responses [3]: no complete responses

Molecule: CO[C@H]1C[C@@H]2CC[C@@H](C)[C@@](O)(O2)C(=O)C(=O)N2CCCC[C@H]2C(=O)O[C@H]([C@H](C)C[C@@H]2CC[C@@H](O)[C@H](OC)C2)CC(=O)[C@H](C)/C=C(\C)[C@@H](O)[C@@H](OC)C(=O)[C@H](C)C[C@H](C)/C=C/C=C/C=C/1C [sirolimus, rapamycin]
- cytotoxicity of the drug alone [1]: not potent cytotoxic drugs
- effect on the cytotoxicity of h1F6-mcF [1]: potentiate the cytotoxicity of h1F6-mcF
- cytotoxicity of the drug alone [4]: not potent cytotoxic drugs except in the Caki-2 cell line grown in media with low FBS

Molecule: CO[C@H]1C[C@@H]2CC[C@@H](C)[C@@](O)(O2)C(=O)C(=O)N2CCCC[C@H]2C(=O)O[C@H]([C@H](C)C[C@@H]2CC[C@@H](OC(=O)C(C)(CO)CO)[C@H](OC)C2)CC(=O)[C@H](C)/C=C(\C)[C@@H](O)[C@@H](OC)C(=O)[C@H](C)C[C@H](C)/C=C/C=C/C=C/1C [temsirolimus]
- cytotoxicity of the drug alone [1]: not potent cytotoxic drugs
- effect on the cytotoxicity of h1F6-mcF [1]: potentiate the cytotoxicity of h1F6-mcF
- cytotoxicity of the drug alone [4]: not potent cytotoxic drugs except in the Caki-2 cell line grown in media with low FBS
- Median Days to Triple Volume [5]: 56 days

Molecule: cAC10-vcE: vc-MMAE (mc-vc-MMAE) antibody drug conjugate wherein the antibody is a chimeric AC10 (anti-CD30) antibody
- interaction with everolimus in delaying tumor growth in vivo ([3]; B-like HL murine xenograft model, FIG. 6): synergistic
- complete responses [3]: no complete responses
- interaction with temsirolimus in delaying tumor growth in vivo ([5]; B-like HL murine xenograft model, FIG. 5): synergistic
- Median Days to Triple Volume [5]: 52 days

B1: h1F6-mcF (conjugate, chains of the INN, looked up)
VH: QVQLVQSGAEVKKPGASVKVSCKASGYTFTNYGMNWVRQAPGQGLKWMGWINTYTGEPTYADAFKGRVTMTRDTSISTAYMELSRLRSDDTAVYYCARDYGDYGMDYWGQGTTVTVSS
VL: DIVMTQSPDSLAVSLGERATINCRASKSVSTSGYSFMHWYQQKPGQPPKLLIYLASNLESGVPDRFSGSGSGTDFTLTISSLQAEDVAVYYCQHSREVPWTFGQGTKVEIK
modifications: maleimidocaproyl-MMAF (mcF) drug conjugate
- interaction with the rapalogs temsirolimus, sirolimus, and everolimus [1]: synergistic
- interaction with the rapalogs temsirolimus and sirolimus [2]: synergistic

B2: hBU12-mcF (conjugate, chains of the INN, looked up)
VH: QVQLQESGPGLVKPSQTLSLTCTVSGGSISTSGMGVGWIRQHPGKGLEWIGHIWWDDDKRYNPALKSRVTISVDTSKNQFSLKLSSVTAADTAVYYCARMELWSYYFDYWGQGTLVTVSS
VL: EIVLTQSPATLSLSPGERATLSCSASSSVSYMHWYQQKPGQAPRLLIYDTSKLASGIPARFSGSGSGTDFTLTISSLEPEDVAVYYCFQGSVYPFTFGQGTKLEIK
modifications: maleimidocaproyl-MMAF (mcF) drug conjugate
- interaction with the rapalogs temsirolimus and sirolimus [6]: synergistic
